Results as given in article PMC12790326, “Water Networks as Hydrophobic Recognition Motifs in Proteins” (Angewandte Chemie (International Ed. in English), 2025).

Key:
BRD4(1) = molecular target: T1, BRD4(1) (Homo sapiens, UniProt O60885); experiment: TR-FRET binding assay: displacement of tetra-acetylated histone H4 peptide; conditions: for loss of efficacy/affinity with respect to 1: TR-FRET; for IC50: displacement of tetra-acetylated H4 peptide from BRD4(1), duplicate, best fit; for TR-FRET IC50 (fold change): fold change of IC50 relative to compound 1
T1 construct: encodes residues 44-168; His6 (TEV-cleavable); made in house; host or cells: Escherichia coli BL21 (DE3)
From the text: Supplementary Information
Figure S3: Normalized TR-FRET assay showing dose-dependently displacement of a tetra-acetylated H4 peptide from Brd4(BD1) in the presence of compounds 2-5. IC50 values corresponding to best fit are reported inside each graph. […]
simultaneously. Each dot represents the average of two independent replicas, and the error bars correspond to their standard deviation.
The BRD4(1) construct was a kind donation of Dr. Alessio Ciulli (University of Dundee, UK) and it encodes residues 44-168. The cloned his-tagged BRD4(1) was expressed in Escherichia coli BL21 (DE3).
For biophysical assays, the protein puriﬁcation procedure consisted of immobilised metal ion aﬃnity chromatography (IMAC), followed by TEV cleavage of the histidine tag and a second IMAC chromatography. For crystallisation assays, the puriﬁcation protocol involved IMAC chromatography, followed by TEV cleavage and size-exclusion chromatography for crystallography. The expression and puriﬁcation has already been described.[25]
The Time-Resolved Fluorescence Resonance Energy Transfer (TR-FRET) binding assay used to measure the disruption of the interaction of BRD4(1) with [Lys(Ac)5/8/12/16]-Histone H4 (1-21)-GGK(Biotin) (Eurogentec) with compounds 1-5, was performed according to a previously described protocol.[26] The experiments were performed in 384-well black plates (NUNC) in a buﬀer composed of 50 mM HEPES, pH 7.4, 50 mM NaCl, 400 mM KF (Sigma), 0.5 mM CHAPS (Sigma), and 0.05% BSA (Sigma) in a ﬁnal volume of 100 μL. BRD4(1) (100 nM) protein domain was mixed with 200 nM of the biotin-labelled histone peptides and incubated for 30 min at room temperature. Molecules were prepared in 250 mM HEPES, pH 7.4, 250 mM NaCl, and 20% DMSO at a single concentration to give a ﬁnal concentration of 50 μM 1% DMSO in a total well volume of 100 μL and incubated for 1 h. Molecules showing inhibition were then screened in duplicate at several serial dilutions. Inhibition (%) at 50 μM was calculated with […]
where the negative control was run without BRD4(1) and inhibitor and positive control, without inhibitor to give the bottom signal and top signal, respectively. The protein−peptide complexes at equilibrium were then detected with 2 nM Eu3+ cryptate-conjugated streptavidin (CisBio) and 10 nM anti-his6-XL665 (CisBio). Titration of a known inhibitor ((+)-JQ1) was used as the control for each experiment. IC50 values were calculated by plotting the log [competitor/inhibitor] versus the mean normalised response data from a single experiment measured in duplicate and ﬁtting it to a four-parameter equation with variable Hill slope, using the GraphPad Prism software: […]
The plates were measured in a CLARIOStar reader (BMG Labtech) using the homogeneous time-resolved ﬂuorescence module (excitation, 337 nm with 200 ﬂashes; emission, 620 and 665 nm). The 665 nm/620 nm ratios were converted to % normalised TR-FRET ratio = top ratio signal as 100% and […]
bottom ratio signal as 0% to normalise experiments performed at diﬀerent days. Dose−response […]
2. Data Collection and Structure Solution.
X-ray diffraction data were collected on beamlines I03 and I04-1 at the Diamond Light Source. Data were integrated with XDS[27] and scaled with AIMLESS[28] as part of the XIA2 and autoPROC auto-processing pipelines.[29,30] Initial refinement and map calculation was carried out with DIMPLE[31] using a ligand-free version of BRD4(1) (PDB 3MXF[25]) as starting model. Ligand restraints were generated with ACEDRG[32] and GRADE.[33] Refinement and model building was performed with REFMAC[34] and COOT,[35] respectively. Structure validation was performed with MolProbity.[36] Final models and structure factors have been deposited with PDB accession codes 9QOB and 9QNV. Data […]
1) Protein and Ligand Preparation
Ligand 1 was co-crystallized in the previous study[9] with PDB code 6ZF9. The ligand pose was extracted from the PDB and missing hydrogens were added with MOE.[37] […]

PDE4D [1] = experiment: PDE4D inhibition (literature IC50); type: biochemical; conditions: gain from the phenyl ring of 3DE (82 µM to 270 nM)
PDE4D [2] = system: PDE4D; parameters: method as in PMID 15685167; conditions: with the phenyl ring; the analogue without it has 82 µM; read-out: affinity for PDE4D (IC50); cited from earlier work

loss of efficacy/affinity with respect to 1 (BRD4(1)) [fold] | IC50 (BRD4(1)) [µM] | TR-FRET IC50 (fold change) (BRD4(1)) [x] | SMILES | ΔΔG bind (PDE4D [1]) [kcal/mol] | IC50 (PDE4D [2]) [nM]
2 | 54 | 2 | Cc1nnc2scc(-c3ccccc3)n12 [Compound 2] | – | –
– | – | – | CCOC(=O)c1c(C)nn(-c2ccccc2)c1C [Compound 3DE] | 3.4 | 270
3 | 85 | 3.3 | COCc1nnc2scc(-c3ccccc3)n12 [Compound 3] | – | –
2.5 | 65 | 2.5 | OCc1nnc2scc(-c3ccccc3)n12 [Compound 4] | – | –
